Experimental data as given in PubChem BioAssay AID1224921 (Broad Institute, 2016).
The source made the active and inactive calls. The rule behind the calls is not given here.

test system: Clostridioides difficile clinical isolate growth, OD600, 24 h; assay: C. difficile growth inhibition, confirmation, 4-point retest (AID 1224921)

SMILES | AC50
CO[C@H]1CN(C)C(=O)c2ccc(NC(=O)Nc3ccc(Cl)c(Cl)c3)cc2OC[C@H](C)NC[C@@H]1C | 1.2 µM
COc1ccccc1CNC(=O)C[C@H]1CC[C@H]2[C@@H](COC[C@H](O)CN2C(=O)Nc2ccc(C(F)(F)F)cc2)O1 | 12 µM
O=C(C[C@@H]1CC[C@@H]2[C@H](COC[C@H](O)CN2C(=O)Nc2ccc(Cl)c(Cl)c2)O1)NCc1ccc(Cl)c(Cl)c1 | 1.14 µM
C[C@H]1CCCCO[C@H](CN(C)Cc2ccccc2)[C@@H](C)CN([C@@H](C)CO)C(=O)c2cc(NC(=O)Nc3ccc(C(F)(F)F)cc3)ccc2O1 | 18.2 µM
CS(=O)(=O)N1[C@H](CO)[C@@H](c2ccc(C#CC3CCCCC3)cc2)[C@@H]1C#N | 17.6 µM
O=C(C[C@H]1CC[C@@H]2[C@H](COC[C@H](O)CN2C(=O)Nc2cc(Cl)cc(Cl)c2)O1)N1CCOCC1 | 9.61 µM
C[C@@H]1CN([C@H](C)CO)C(=O)c2cccc(NC(=O)Nc3ccc(C(F)(F)F)cc3)c2O[C@@H]1CN(C)C(=O)Nc1ccccc1 | 32.9 µM
CCCNC(=O)Nc1ccc2c(c1)C(=O)N(C)C[C@@H](OC)[C@@H](C)CN(C)[C@H](C)CO2 | > 60 µM (inactive)
CC(C)NC(=O)N1[C@H](CO)[C@@H](c2ccc(-c3ccc(F)cc3)cc2)[C@@H]1C#N | 22.6 µM
CO[C@@H]1CN(C)C(=O)c2cc(NC(=O)Nc3cc(Cl)cc(Cl)c3)ccc2OC[C@H](C)NC[C@H]1C | 5.04 µM
CO[C@@H]1CN(C)C(=O)c2cc(NC(=O)C3CCCC3)ccc2OC[C@@H](C)N(C(=O)Nc2ccc(C(F)(F)F)cc2)C[C@H]1C | 26.6 µM
O=C(C[C@H]1CC[C@@H]2[C@H](COC[C@@H](O)CN2S(=O)(=O)c2ccccc2)O1)NCC1CCCCC1 | 15.5 µM
CO[C@@H]1CN(C)C(=O)c2cc(NC(=O)Nc3ccc(F)cc3)ccc2OC[C@@H](C)NC[C@@H]1C | > 60 µM (inactive)
C[C@H](NC(=O)C[C@H]1CC[C@H]2[C@@H](COC[C@@H](O)CN2C(=O)Nc2cc(Cl)cc(Cl)c2)O1)c1ccccc1 | 17.9 µM
CO[C@@H]1CN(C)C(=O)c2cc(NC(=O)Nc3ccc(Cl)c(Cl)c3)ccc2OC[C@H](C)NC[C@@H]1C | 8.13 µM
O=C(C[C@@H]1CC[C@@H]2[C@H](COC[C@@H](O)CN2C(=O)Nc2ccc(C(F)(F)F)cc2)O1)NC1Cc2ccccc2C1 | 2.27 µM
CCCNC(=O)C[C@H]1CC[C@@H]2[C@H](COC[C@@H](O)CN2C(=O)Nc2ccc(Cl)c(Cl)c2)O1 | 2.91 µM
C[C@@H]1CN([C@H](C)CO)C(=O)Cc2cc(NC(=O)CCCN(C)C)ccc2O[C@H]1CN(C)Cc1ccc(-c2ccccc2)cc1 | 19 µM

SMILES | AC50
CO[C@H](CN(C)C(=O)C1CCOCC1)[C@H](C)CN(C(=O)Nc1ccc(C(F)(F)F)cc1)[C@@H](C)CO | 4.13 µM
CO[C@H](CN(C)C(=O)C1CCOCC1)[C@@H](C)CN(C(=O)Nc1ccc(C(F)(F)F)cc1)[C@H](C)CO | 0.831 µM
C[C@@H]1CCCCO[C@@H](CN(C)CC2CC2)[C@H](C)CN([C@@H](C)CO)C(=O)c2cc(NC(=O)Nc3ccc(C(F)(F)F)cc3)ccc2O1 | 17.6 µM
CCNC(=O)C[C@H]1CC[C@@H]2[C@H](COC[C@H](O)CN2C(=O)Nc2ccc(C(F)(F)F)cc2)O1 | 3.45 µM
O=C(C[C@@H]1CC[C@H]2[C@@H](COC[C@@H](O)CN2C(=O)Nc2cc(Cl)cc(Cl)c2)O1)NCC1CC1 | 16.2 µM
O=C(C[C@H]1CC[C@@H]2[C@H](COC[C@@H](O)CN2C(=O)Nc2ccc(Cl)c(Cl)c2)O1)NCc1ccccc1 | 4.01 µM
O=C(NCC[C@@H]1CC[C@H](NC(=O)c2cccnc2)[C@@H](CO)O1)Nc1ccc(C(F)(F)F)cc1 | 17 µM
CO[C@@H]1CN(C)C(=O)c2ccc(NC(=O)C3CCOCC3)cc2OC[C@@H](C)N(C(=O)Nc2ccc(C(F)(F)F)cc2)C[C@H]1C | 16.1 µM
O=C(C[C@@H]1CC[C@H]2[C@@H](COC[C@@H](O)CN2C(=O)Nc2ccc(Cl)c(Cl)c2)O1)NCc1ccc(F)cc1 | 1.92 µM
O=C(C[C@@H]1CC[C@@H]2[C@H](COC[C@H](O)CN2C(=O)Nc2ccc(C(F)(F)F)cc2)O1)NC1Cc2ccccc2C1 | 19 µM
N#C[C@H]1[C@H](c2ccc(C#Cc3cccc(F)c3)cc2)[C@@H](CO)N1C(=O)C1CCC1 | > 16 µM (inactive)
CO[C@H]1CN(C)C(=O)c2ccc(NC(=O)Nc3ccccc3)cc2OC[C@@H](C)NC[C@@H]1C | > 60 µM (inactive)
N#C[C@@H]1[C@H](c2ccc(C#Cc3ccc(F)cc3)cc2)[C@@H](CO)N1C(=O)C1CCC1 | > 60 µM (inactive)
O=C(C[C@@H]1CC[C@H]2[C@@H](COC[C@H](O)CN2C(=O)Nc2ccc(Cl)c(Cl)c2)O1)NCc1ccncc1 | 3.77 µM
CCCN(C)C[C@@H]1OCCCC[C@H](C)Oc2ccc(NC(=O)Nc3ccc(C(F)(F)F)cc3)cc2C(=O)N([C@H](C)CO)C[C@@H]1C | 4.61 µM
COCC(=O)N1C[C@H](C)[C@H](OC)CN(C)C(=O)c2ccc(NC(=O)NC(C)C)cc2OC[C@H]1C | > 60 µM (inactive)
C[C@@H]1CCCCO[C@@H](CN(C)Cc2ccccc2)[C@H](C)CN([C@H](C)CO)C(=O)c2cc(NC(=O)Nc3ccc(C(F)(F)F)cc3)ccc2O1 | 21.9 µM
CC(C)NC(=O)N(C)C[C@@H]1Oc2c(NC(=O)Nc3ccc(C(F)(F)F)cc3)cccc2C(=O)N([C@H](C)CO)C[C@@H]1C | 23.3 µM
